Structures can show the parent of a compound that is named as a salt. Where two headings read alike, the source gives them in different places.
Key:
Assay type in all cases: cell-based
bacteria = experiment: In vitro antibacterial potency; conditions: compared with corresponding compound lacking 2-methyl group (BB-S515)
E. coli [1] = experiment: In vitro antibacterial activity, Mueller-Hinton agar serial dilution (Table 1); conditions: Escherichia coli, 7 strains, serial dilution method, read-out: Geometric Mean of MIC
Excerpt: (§1) In vitro Activity Using Mueller-Hinton Agar
(§2) By the Serial Dilution Method

H. influenzae = experiment: as above; conditions: Haemophilus influenzae, 7 strains, serial dilution method, read-out: Geometric Mean of MIC
Excerpt: as §1, §2

S. aureus = experiment: as above; conditions: Staphylococcus aureus, 3 strains, serial dilution method, read-out: Geometric Mean of MIC
Excerpt: as §1, §2

Kl. pneumoniae = experiment: as above; conditions: Klebsiella pneumoniae, 4 strains, serial dilution method, read-out: Geometric Mean of MIC
Excerpt: as §1, §2

Proteus = experiment: as above; conditions: read-out: Geometric Mean of MIC
Excerpt: as §1, §2

D. pneumoniae = experiment: as above; conditions: Streptococcus pneumoniae, 5 strains, serial dilution method, read-out: Geometric Mean of MIC
Excerpt: as §1, §2

S. pyogenes = experiment: as above; conditions: Streptococcus pyogenes, read-out: Geometric Mean of MIC
Excerpt: as §1, §2

S. viridans = experiment: as above; conditions: Streptococcus viridans, 5 strains, serial dilution method, read-out: Geometric Mean of MIC
Excerpt: as §1, §2

N. gonorrhoeae = experiment: as above; conditions: Neisseria gonorrhoeae, 5 strains, serial dilution method, read-out: Geometric Mean of MIC
Excerpt: as §1, §2

[2] = test system: Shig.(3), Serr.(1) Enterab.(1), Sal.(2) B. -B. (1); experiment: as above; conditions: pooled Shig.(3), serial dilution method, read-out: Geometric Mean of MIC
Excerpt: as §1, §2

N. meningitidis = experiment: as above; conditions: Neisseria meningitidis, 5 strains, serial dilution method, read-out: Geometric Mean of MIC
Excerpt: as §1, §2

S. marcescens [3] = experiment: MIC against 18 strains of S. marcescens (Table 3); conditions: Serratia marcescens, read-out: Geometric Means of MIC's
Excerpt: | Geometric Means of MIC's Against 18 Strains |of S. marcescens

E. coli [4] = experiment: MIC on Mueller-Hinton agar (Table 2); conditions: Escherichia coli, 6 strains, read-out: Geometric Means of MIC's
Excerpt: (§3) Geometric Means of MIC's Against 3 Strains
(§4) of S. aureus and 27 Strains of Gram-negative Bacteria
(§5) (mcg./ml., Mueller-Hinton Agar)

E. coli, Cephalosporin-R = experiment: MIC on Mueller-Hinton agar (Table 2); conditions: Escherichia coli, 1 strain, read-out: Geometric Means of MIC's
Excerpt: as §3, §4, §5

K. pneumoniae = experiment: MIC on Mueller-Hinton agar (Table 2); conditions: Klebsiella pneumoniae, 4 strains, read-out: Geometric Means of MIC's
Excerpt: as §3, §4, §5

P. aeruginosa = experiment: MIC on Mueller-Hinton agar (Table 2); conditions: Pseudomonas aeruginosa, 2 strains, read-out: Geometric Means of MIC's
Excerpt: as §3, §4, §5

E. cloacae = experiment: MIC on Mueller-Hinton agar (Table 2); conditions: Enterobacter cloacae, 1 strain, read-out: Geometric Means of MIC's
Excerpt: as §3, §4, §5

[5] = test system: Indole (+) Proteus, Cephalosporin-R; experiment: MIC on Mueller-Hinton agar (Table 2); conditions: 2 strains, read-out: Geometric Means of MIC's
Excerpt: as §3, §4, §5

Indole (-) Proteus = experiment: MIC on Mueller-Hinton agar (Table 2); conditions: 2 strains, read-out: Geometric Means of MIC's
Excerpt: as §3, §4, §5

S. aureus, Penicillin-R = experiment: MIC on Mueller-Hinton agar (Table 2); conditions: Staphylococcus aureus, 2 strains, read-out: Geometric Means of MIC's
Excerpt: as §3, §4, §5

Indole (+) Proteus = experiment: MIC on Mueller-Hinton agar (Table 2); conditions: 3 strains, read-out: Geometric Means of MIC's
Excerpt: as §3, §4, §5

S. marcescens [6] = experiment: MIC on Mueller-Hinton agar (Table 2); conditions: Serratia marcescens, 1 strain, read-out: Geometric Means of MIC's
Excerpt: as §3, §4, §5

Shigella, Salmonella = experiment: MIC on Mueller-Hinton agar (Table 2); conditions: 5 strains, read-out: Geometric Means of MIC's
Excerpt: as §3, §4, §5

In the case of `CO/N=C(\C(=O)N[C@@H]1C(=O)N2C(C(=O)O)=C(CSc3ccc4nn(C)c(=O)n4n3)CS[C@H]12)c1ccco1` [BB-S510, 7-[(2Z)-2-methoxyimino(fur-2-yl)acetamido]-3-(2-methyl-2,3-dihydro-s-triazolo[4,3-b]pyridazin-3-on-6-ylthiomethyl)-3-cephem-4-carboxylic acid sodium salt], the “in vitro antibacterial potency” value (bacteria) is reported as “considerably superior”, the MIC (E. coli [1]) is reported as 2.11 µg/mL and the MIC (H. influenzae) is reported as 0.35 µg/mL. The MIC (S. aureus) was 0.62 µg/mL, the MIC (Kl. pneumoniae) was 6.3 µg/mL and the MIC (Proteus; 6 strains, Mueller-Hinton agar, serial dilution method) was 1.39 µg/mL. The MIC (D. pneumoniae) was 0.021 µg/mL, the MIC (S. pyogenes; 5 strains, Mueller-Hinton agar, serial dilution method) was 0.0125 µg/mL and the MIC (S. viridans) was 0.13 µg/mL. For the same compound, the MIC (N. gonorrhoeae) was 0.26 µg/mL, the MIC [2] was 6.26 µg/mL and the MIC (N. meningitidis) was 1.03 µg/mL. For the same compound, the MIC (S. marcescens [3]) was 7.9 µg/mL, the MIC (E. coli [4]) was 0.1 µg/mL and the MIC (E. coli, Cephalosporin-R) was 3.1 µg/mL. It also gave an MIC (K. pneumoniae) of 2.6 µg/mL, an MIC (P. aeruginosa) of over 100 µg/mL and an MIC (E. cloacae) of 3.1 µg/mL. For the same compound, the MIC [5] was 6.3 µg/mL, the MIC (Indole (-) Proteus) was 1.1 µg/mL and the MIC (S. aureus, Penicillin-R) was 0.1 µg/mL. It also gave an MIC (Indole (+) Proteus) of 0.2 µg/mL, an MIC (S. marcescens [6]) of 6.3 µg/mL and an MIC (Shigella, Salmonella) of 0.5 µg/mL.

In the case of `CO/N=C(\C(=O)N[C@@H]1C(=O)N2C(C(=O)O)=C(CSc3ccc4n[nH]c(=O)n4n3)CS[C@H]12)c1ccco1` [BB-S515, 7-[(2Z)-2-methoxyimino(fur-2-yl)acetamido]-3-(2,3-dihydro-s-triazolo[4,3-b]pyridazin-3-on-6-ylthiomethyl)-3-cephem-4-carboxylic acid sodium salt, reference compound], the MIC (E. coli [1]) is reported as 2.33 µg/mL, the MIC (H. influenzae) is reported as 2.11 µg/mL and the MIC (S. aureus) is reported as 2.48 µg/mL. It also gave an MIC (Kl. pneumoniae) of 3.1 µg/mL, an MIC (Proteus) of 1.11 µg/mL and an MIC (D. pneumoniae) of 0.1 µg/mL. For the same compound, the MIC (S. pyogenes) was 0.032 µg/mL, the MIC (S. viridans) was 0.59 µg/mL and the MIC (N. gonorrhoeae) was 2.07 µg/mL. It also gave an MIC [2] of 5.26 µg/mL and an MIC (N. meningitidis) of 5.45 µg/mL.
